Reference: patent US20240140953A1, “INHIBITORS OF MENIN-MLL INTERACTION” (BIOMEA FUSION, INC., priority 2018, published 2024)
Where two headings read alike, the source gives them in different places.

Columns and labels:
[1] = test system: MOLM-13; assay: Long term proliferation, InCell (Table 3C), MOLM-13; type: cell-based; settings: Homo sapiens, MOLM-13, InCell
Description: (§1) Compounds of invention are tested in the 5 suspension lines by 14-day long-term proliferation assay.
(§2) The compound is tested in 10-pt dose titration (client will determine the starting concentration and the dilution scheme) and the final DMSO concentration is kept at 0.2%.
(§3) Vehicle and media control are also included. All treatments are done in triplicate.
(§4) • 1) On Day 0, in a flat bottom 96-well plate, add 100 μL of cells per well at the densities optimized. • 2) Prepare compounds in DMSO at 500× final concentration. Dilute the compounds with DMSO at the dilution. • 3) Dilute the compounds in media at 3×final concentration. Add 50 μL of compound or DMSO at 3× final concentration to each well. Final volume in each well is 150 μL, and final concentration of DMSO is 0.2%. Also include 3 untreated control wells, by adding 50 μL of media alone. 4) Incubate plates for 96 hours. • 5) Count the cells using the Acumen, with capabilities for 96-well plates. Pipette cells up and down to mix in each well, and add desired volume of cells to a new flat bottom poly-D-lysine 96-well plate. Add Calcein AM at 1 μM final concentration. Let cells sit at RT for 10 mins followed by a quick spin to get cells settled on the bottom of the wells. Incubate the plate for additional 40 mins in the incubator. Take out the plate and read by Acumen. Calculate the cell numbers taken into account the dilution factors. • 6) Split the master plate. To do this take the total viable cell count calculated using step 5). Take the average of the replicates for each dose in order to be used in splitting the cells. • 7) Use a 96 well V-bottom plate to spin down the cells to remove old media and compound to split the cells. Based on the split ratio place the proper amount of media and cells into the V-bottom plate, and spin the plate at 1100 rpm for 5 minutes. • 8) Following the spin remove the media, careful not to disturb the cellpellet. • 9) Re-suspend pellet in 100 μL fresh media, and add to a new 96-well flat bottom plate. • 10) Add fresh compound, in the same manner as Step 3). • 11) Incubate plates for 72 hours. Repeat steps 5)-10) on Day 7. • 12) Incubate plates for 96 hours. Repeat Step 5)-10) on Day 11. • 13) Incubate 72 hours and repeat step 5) to take a final count. • 14) Data Analysis
(§5) To calculate growth for days 4, 7, 11, and 14: • Calculate the split factor for day 4 to 7, day 7 to 11, and day 11-14.

[2] = test system: MV4-11; assay: Long term proliferation, Cell Titer-Glo (Table 3B), MV4-11; type: cell-based; settings: Homo sapiens, MV4-11, Cell Titer-Glo
[3] = test system: OCI-AML-3; assay: Long term proliferation, InCell (Table 3C), OCI-AML-3; type: cell-based; settings: Homo sapiens, OCI-AML-3, InCell
Description: as §1, §2, §3, §4, §5

[4] = test system: KG-1; assay: Long term proliferation, Cell Titer-Glo (Table 3B), KG-1; type: cell-based; settings: Homo sapiens, KG-1, Cell Titer-Glo
[5] = test system: MV4-11; assay: Long term proliferation, InCell (Table 3C), MV4-11; type: cell-based; settings: Homo sapiens, MV4-11, InCell
Description: as §1, §2, §3, §4, §5

[6] = test system: MOLM-13; assay: Long term proliferation, Cell Titer-Glo (Table 3B), MOLM-13; type: cell-based; settings: Homo sapiens, MOLM-13, Cell Titer-Glo
[7] = target: menin (Homo sapiens (Human), UniProt O00255); assay: Kd (Table 3A); type: binding
menin, sequence (O00255 whole entry, species assumed): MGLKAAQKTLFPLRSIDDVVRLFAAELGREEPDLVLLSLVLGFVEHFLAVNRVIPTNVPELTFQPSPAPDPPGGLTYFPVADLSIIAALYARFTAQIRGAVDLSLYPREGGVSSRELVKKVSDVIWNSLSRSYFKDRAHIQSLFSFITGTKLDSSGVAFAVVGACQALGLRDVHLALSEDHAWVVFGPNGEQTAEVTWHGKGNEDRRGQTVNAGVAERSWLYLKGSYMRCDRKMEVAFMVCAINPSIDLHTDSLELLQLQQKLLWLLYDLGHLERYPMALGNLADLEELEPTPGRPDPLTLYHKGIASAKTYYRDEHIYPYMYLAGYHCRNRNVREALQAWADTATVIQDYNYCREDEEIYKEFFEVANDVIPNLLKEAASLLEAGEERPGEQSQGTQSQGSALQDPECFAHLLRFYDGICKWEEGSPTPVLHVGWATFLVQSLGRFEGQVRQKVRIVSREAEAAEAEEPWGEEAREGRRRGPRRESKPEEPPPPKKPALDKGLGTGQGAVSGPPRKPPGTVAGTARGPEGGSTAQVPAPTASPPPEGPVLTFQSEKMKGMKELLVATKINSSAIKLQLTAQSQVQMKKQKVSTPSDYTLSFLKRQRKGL

[8] = 96 h, Day 4, read-out: Day 4 IC50
[9] = 264 h, Day 11, read-out: Day 11 IC50
[10] = 168 h, Day 7, read-out: Day 7 IC50
[11] = 336 h, Day 14, read-out: Day 14 IC50

SMILES | IC50 [1, 8] [nM] | IC50 [1, 9] [nM] | IC50 [2, 8] [nM] | IC50 [2, 10] [nM] | IC50 [2, 9] [nM] | IC50 [2, 11] [nM] | IC50 [3, 8] [nM] | IC50 [3, 9] [nM] | IC50 [4, 8] [nM] | IC50 [4, 10] [nM] | IC50 [4, 9] [nM] | IC50 [4, 11] [nM] | IC50 [5, 8] [nM] | IC50 [5, 9] [nM] | IC50 [6, 8] [nM] | IC50 [6, 10] [nM] | IC50 [6, 9] [nM] | IC50 [6, 11] [nM] | Kd [7] [nM]
O=C(Nc1ccc(-c2cc3c(N4CCOCC4)ncnc3[nH]2)cc1)Nc1cc(-c2cccnc2)n[nH]1 [Compound 9, 1-{4-[4-(morpholin-4-yl)-7H-pyrrolo[2,3-d]pyrimidin-6-yl]phenyl}-3-[3-(pyridin-3-yl)-1H-pyrazol-5-yl]urea] | 520 | 340 | 740 | 380 | 320 | 210 | 370 | 720 | > 5000 | 4790 | 1700 | 1230 | 500 | 430 | 410 | 240 | 240 | 480 | –
O=C(Cc1cc(-c2cccnc2)n[nH]1)Nc1ccc(-c2nc3c(N4CCOCC4)ncnc3[nH]2)cc1 [Compound 12, N-{4-[6-(morpholin-4-yl)-9H-purin-8-yl]phenyl}-2-[3-(pyridin-3-yl)-1H-pyrazol-5-yl]acetamide] | – | – | – | – | – | – | – | – | – | – | – | – | – | – | – | – | – | – | 500 ± 200
